What was measured:
[1] = system: BGC-823 human gastric adenocarcinoma xenograft; assay: BGC-823 xenograft in nude mice; assay type: in vivo; conditions: 223 25 mg/kg, qdx8
Method: Next we further examined anti-tumor effect of 223 in vivo. Nude mice bearing a BGC-823 human gastric adenocarcinoma xenograft were treated with vehicle or 223 (25 mg/kg, qdx8) or 10-hydroxycamptothecin (HCPT), a widely used anti-tumor drug (30 mg/kg, q6dx2).

[2] = system: IKKβ C215 containing peptides #3 and #4; assay: Peptide binding by MALDI-TOF; design: species or system human
[3] = system: Phosphorylation of IKKα/β; assay: TRAF6-induced IKKα/β phosphorylation in S100 cell lysates from 293T cells; assay type: biochemical; conditions: S100 cell lysates from 293T cells with recombinant TRAF6
Method: TNF receptor-associated factors (TRAFs) are important intermediates in NF-κB signaling pathway. For example, TRAF2 and TRAF5 regulate TNF-α receptor triggered IKK activation, whereas TRAF6 is required for IL-1 induced IKK activation^2. The latter pathway can be reconstituted in cell-free extracts by adding recombinant TRAF6 protein. Phosphorylation of IKKα/β was detected in S100 cell lysates from 293T cells when incubated with recombinant TRAF6.

TAB1 = TAB1 (Homo sapiens, UniProt Q15750); assay: Association with other NF-κB pathway proteins; assay type: binding
[4] = system: peptides 1A, 2A, 1S and 2S (cysteine 46 replaced by alanine or serine); assay: Peptide binding by MALDI-TOF; design: species or system human
cancer cells = assay: Cell death in cancer cells (cell line not given); assay type: cell-based; conditions: addition of DTT
glioblastoma T98G cells = assay: Cancer cell survival; assay type: cell-based, human; conditions: different concentration
phosphorylation of IκBα [5] = assay: LPS induced NF-κB activation: IκBα phosphorylation in RAW264.7 cells (western blot); assay type: cell-based, mouse
[6] = system: NIK-mediated production of p52 (IKKα activity); assay: NIK-mediated non-canonical NF-κB activation (processing of p100 to p52); assay type: cell-based; conditions: ectopic expression of NIK
Source text: Since phosphorylation of p100 by IKKα is critical for NIK-mediated activation of the non-canonical NF-κB, we further investigated the effect of 223 on non-canonical NF-κB activation.

[7] = system: IKKβ, other eight cysteine-to-alanine mutants; assay: Binding to IKKβ cysteine mutants
Source text: In order to evaluate which of them is critical for the binding of 223, we individually mutated these nine cysteine residues of IKKβ into alanines.

phosphorylation of IκBα [8] = assay: poly(I:C) (TLR3 ligand) triggered IκBα phosphorylation; assay type: cell-based
IKKγ/NEMO = IKKγ/NEMO (Homo sapiens, UniProt Q9Y6K9); assay: Association with other NF-κB pathway proteins; assay type: binding
IFR3 phosphorylation = assay: LPS-induced type I interferon (IFN) responses; assay type: cell-based

Chain of TAB1 (Q15750 whole entry, species assumed): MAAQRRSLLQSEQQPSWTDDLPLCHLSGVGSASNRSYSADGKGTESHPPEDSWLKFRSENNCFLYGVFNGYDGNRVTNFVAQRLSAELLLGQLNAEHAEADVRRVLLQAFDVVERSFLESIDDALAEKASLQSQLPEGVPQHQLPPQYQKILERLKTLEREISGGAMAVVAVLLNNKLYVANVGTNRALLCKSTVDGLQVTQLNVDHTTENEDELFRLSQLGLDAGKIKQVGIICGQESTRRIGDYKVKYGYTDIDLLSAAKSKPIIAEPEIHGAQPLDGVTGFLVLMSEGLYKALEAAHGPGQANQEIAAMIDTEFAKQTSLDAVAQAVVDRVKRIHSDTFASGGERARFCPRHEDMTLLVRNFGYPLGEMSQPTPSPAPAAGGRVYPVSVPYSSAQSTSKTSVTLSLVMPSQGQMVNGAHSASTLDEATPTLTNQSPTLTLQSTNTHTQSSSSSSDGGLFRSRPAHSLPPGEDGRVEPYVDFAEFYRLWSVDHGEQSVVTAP
Chain of IKKγ/NEMO (Q9Y6K9 whole entry): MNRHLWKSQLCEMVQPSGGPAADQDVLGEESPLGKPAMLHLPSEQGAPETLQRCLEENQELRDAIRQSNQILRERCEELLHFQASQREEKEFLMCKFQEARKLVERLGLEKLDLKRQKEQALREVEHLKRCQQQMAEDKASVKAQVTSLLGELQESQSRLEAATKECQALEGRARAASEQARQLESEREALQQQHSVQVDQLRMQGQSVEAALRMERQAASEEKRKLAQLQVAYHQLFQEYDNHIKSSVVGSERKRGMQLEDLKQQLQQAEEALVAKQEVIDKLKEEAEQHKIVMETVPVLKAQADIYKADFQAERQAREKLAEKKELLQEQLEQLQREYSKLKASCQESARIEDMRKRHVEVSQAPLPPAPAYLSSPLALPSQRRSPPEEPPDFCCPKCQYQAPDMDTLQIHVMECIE

## C=C1C(=O)O[C@@H]2[C@@H]3[C@@H](C[C@@]4(O)[C@]3(O)CC[C@]43C(=O)C[C@H]4C(=C)CC[C@H]5C(=C)C(=O)O[C@@H]5[C@H]43)C(=C)CC[C@@H]12 [Compound 223, (+)-Ainsliadimer A]
[1]
  anti-tumor effect relative to HCPT (30 mg/kg, q6dx2): comparable
[1]; HCPT 30 mg/kg, q6dx2
  side effects and body weight during administration: did not display any discernible side effects or significant changes in body weight
[1]; after 12 days
  mice with significant tumor remission: eight of eight
[1]; after 12 days, compared to vehicle
  xenograft tumor response: Significant xenograft tumor remission
[2]
  association with peptides #3 and #4: no association
[3]
  TRAF6-induced phosphorylation of IKKα/β: completely abolished
TAB1
  association with TAB1: no association
[4]
  binding to peptides 1A, 2A, 1S and 2S: lost the ability to bind
Cancer cells
  compound-triggered inhibition of cell survival: completely abolished
Glioblastoma T98G cells
  cell death: Dramatic cell death
Phosphorylation of IκBα [5]; RAW264.7 cells
  inhibitory effect against LPS-induced NF-κB activation in comparison with BMS-345541: much stronger inhibitory effect
Phosphorylation of IκBα [5]; RAW264.7 cells, pre-treatment, LPS for 10 or 20 minutes
  concentration that effectively blocks phosphorylation of IκBα: about 8 μM
Phosphorylation of IκBα [5]; Raw 264.7 cells pre-incubated with 4 μM for 2 h, 20 ng/ml LPS, 20 minutes, western blot
  phosphorylation of IκBα: effectively blocked
[6]
  NIK-mediated production of p52: prevented
[7]
  binding of other eight IKKβ cysteine mutants: retained high affinity binding
Phosphorylation of IκBα [8]
  phosphorylation of IκBα triggered by poly(I:C): markedly suppressed
IKKγ/NEMO
  association with IKKγ/NEMO: no association
IFR3 phosphorylation
  effect on LPS-induced type I interferon (IFN) responses (IFR3 phosphorylation): no effect
